The values below are quoted from earlier work in patent US20170261495A1, “MODEL SYSTEMS FOR SCREENING MODULATORS OF mTOR SIGNALING” (SHRINERS HOSPITALS FOR CHILDREN, priority 2015, published 2017).

The conditions of this data set: clinical trials.

Turning to `CO[C@H]1C[C@@H]2CC[C@@H](C)[C@@](O)(O2)C(=O)C(=O)N2CCCC[C@H]2C(=O)O[C@H]([C@H](C)C[C@@H]2CC[C@@H](OCCO)[C@H](OC)C2)CC(=O)[C@H](C)/C=C(\C)[C@@H](O)[C@@H](OC)C(=O)[C@H](C)C[C@H](C)/C=C/C=C/C=C/1C` [everolimus], the effects on epilepsy entry (TSC) is recorded as “minimal”. Also, the “size of renal and brain tumors” value (TSC (Krueger et al., 2010)) is reported as “clear reduction”.
